Data reported in patent US9404087B2, “Insulin producing cells derived from pluripotent stem cells” (Kadimastem Ltd., priority 2010, dated 2016).

Columns and labels:
Assay type in all cases: cell-based
human insulin C-peptide = assay: Content of human insulin C-peptide by ELISA in cell fractions; conditions: EDTA added during re-aggregation (Table 2, Expt 3)
Experimental: On day 20, the medium used in step III of Example 2 was modified to adjust the glucose concentration to 5.5 mM (referred to herein as DM7). For isolation of EpCAM^+ cells by magnetic cell sorting (MACS technology, Miltenyi Biotec), a 10 cm-diameter plate was washed with PBS^−/− (no Ca^++, no Mg^++). Cells were then dissociated by treatment with Accutase (Stempro, 2.5 ml/10 cm plate), for 10 minutes at 37° C., and pipetting up and down. The cells were collected in DM7 and an aliquot counted in a NucleoCounter (New Brunswick). Cells were centrifuged at 1,500 rpm (350×g) for 5 minutes and re-suspended in MACS buffer (PBS^−/− with 0.5% BSA, 2 mM EDTA), using 0.3 ml for 50 million cells. Magnetic beads conjugated to anti-EpCAM antibodies (Miltenyi Biotec—CD326 pluripotent stem cells microbeads) were added (0.1 ml beads for 50 million cells). After 30 minutes at 4° C., the cells were washed once in 50 ml of MACS buffer, centrifuged, and finally re-suspended in 0.5 ml MACS buffer (for a maximum of 10^8 cells). […]
Aliquots of the Presort culture and of EpCAM-MACS-separated fractions (from step 7), as well as of re-aggregated clusters (step 8) were analyzed. The number of cells was counted, using the Nucleocounter. […] Human insulin mRNA was quantitated by RT-qPCR (Taq-Man, Applied Biosystems, Step One) using the TATA binding protein (TBP) gene as reference. […]

Human insulin mRNA = Human insulin mRNA by RT-qPCR with TBP as reference; conditions: EDTA added during the re-aggregation step
Experimental: Aliquots of the Presort culture and of EpCAM-MACS-separated fractions (from step 7), as well as of re-aggregated clusters (step 8) were analyzed. The number of cells was counted, using the Nucleocounter. After centrifugation at 350×g for 5 minutes, cell pellets were dissolved in M-PER (Mammalian protein extraction reagent, Pierce), typically using 0.1 ml M-PER for 2 million cells, and content of human insulin C-peptide was measured with an ELISA kit (Mercodia, Upsalh, Sweden, ultrasensitive c-peptide kit (minimal detection 5 pM) or Mercodia c-peptide ELISA (minimal detection 90 pM). Samples in M-PER were diluted 3 fold, or more in the kit buffer, and 20 μl of the ⅓ dilution were assayed. Results were expressed per mg total protein (as measured by Bradford assay) and per million cells (counted in a NucleoCounter). Other cell pellets were suspended in 0.7 ml buffer RLT (RNAeasy, Qiagen) per million cells, for RNA extraction. Human insulin mRNA was quantitated by RT-qPCR (Taq-Man, Applied Biosystems, Step One) using the TATA binding protein (TBP) gene as reference. In the same way, proteins and RNA were extracted from entire plates after scraping the cells with a rubber policeman. […]

human ES cells [1] = assay: Immunofluorescence for Pdx1 positive cells during differentiation
Experimental: On day 6, cells were washed with DMEM/F12, 2 mM glutamine, 1×PS, and medium changed to differentiation medium B1 (DMEM/F12, 2 mM glutamax (Invitrogen), 2 mg/ml BSA, 1% B27 supplement (In Vitrogen) 50 ng/ml human recombinant FGF10 (Preprotech), and 10 μM Forskolin (F-6886 from coleus forskohlii (SIGMA)). The cells were left two days in the same medium.
On day 8, the medium was changed to differentiation medium B2 i.e. medium B1 with addition of 2 μM fresh ATRA (All trans retinoic acid) for five days. Medium was changed every two days.
(§1) On day 13, medium was changed to DMEM/F12, Glutamine 2 mM, PS, 1×ITS supplement (Invitrogen), 2 mg/ml BSA, 5 μg/ml bovine fibronectin (Biological Industries Bet Ha'emek,), Nicotinamide 10 mM (SIGMA) and exendin-4, 5-50 ng/ml. Medium was changed every two days. Cells positive for C-peptide staining start to appear around day 19 of differentiation, but strong immunostaining for C-peptide appears at day 23 and positive islet like structures continue to form till day 50 and persist for at least 70 days. When the cells have differentiated more than 15-20 days, they can be further trypsinized and replated. On the second plating, islet-like structures appear 20-30 days after replating.
Performed as in Example 1. Goat polyclonal anti-human Pdx1/IPF1 (R&D) antibody at 1:100 for 2 hrs, (blocking at 5% BSA in PBS with Triton 0.1%) was used. […]

human ES cells [2] = assay: Immunostaining for C-peptide and glucagon in islet-like structures
Experimental: as §1
Cultures obtained as in Examples 1 and 2 were further cultured in ITS medium (as detailed in step III of Example 2) and were stained using polyclonal rabbit antibody to C-peptide (Acris) or monoclonal antibody (MAB 1975, Abcam) at dilution 1:200 overnight. To detect glucagon-produing cells, the cultures were also stained with goat polyclonal antibody against Glucagon (Santa Cruz N-17) at the concentration of 1:200 over night. The glucose transporter Glut2 was detected with mouse monoclonal Anti Glut-2 antibodies (R&D systems) used at the concentration of 1:200. […]

O=C(O)CN(CCN(CC(=O)O)CC(=O)O)CC(=O)O [EDTA, reference compound]
effect on C-peptide content of re-aggregated cells (human insulin C-peptide): further increase | effect on enrichment of insulin mRNA (Human insulin mRNA): increased

CC1=C(/C=C/C(C)=C/C=C/C(C)=C/C(=O)O)C(C)(C)CCC1 [retinoic acid, All trans retinoic acid]
cultured cells expressing Pdx1 (human ES cells [1]; day 14, two days after end of retinoic acid treatment (2 μM ATRA with FGF10 and forskolin)): about 50%

exendin-4: maturation factor added to ITS medium at 5-50 ng/ml
effect on the percentage of Pdx1 positive cells (human ES cells [1]; 5-50 ng/ml, with nicotinamide, cell counting (data not shown)): positive effect | total amount of cells positive for C-peptide versus control without exendin-4 (human ES cells [2]; 5 ng/ml, after 60 days of differentiation (FIGS. 9A-B)): sufficient to increase | number of C-peptide/glucagon positive areas, 50 ng/ml relative to 5 ng/ml (human ES cells [2]; day 60 (not shown)): 3 time more
